Key:
[1] = target: Galectin-3 (Homo sapiens, UniProt P17931); assay: Biological Assay
Description: (§1) The inhibitory activity of compounds is determined in competitive binding assays. This spectrophotometric assay measures the binding of biotinylated human Gal-3 (hGal-3) or human Gal-1 (hGal-1), respectively, to a microplate-adsorbed glycoprotein, asialofetuin (ASF) (Proc Natl Acad Sci USA. 2013 Mar. 26; 110(13):5052-7.). Alternatively, and preferably, a human Gal-1 version in which all six cysteines are substituted by serines may be used. Briefly, compounds are serially diluted in DMSO (working dilutions). ASF-coated 384 well plates are supplemented with 22.8 μL/well of biotinylated hGal-3 or hGal-1 in assay buffer (i.e. 300-1000 ng/mL biotinylated hGal-3 or hGal-1) to which 1.2 μL of compound working dilutions are added and mixed. Plates are incubated for 3 hours at 4° C., then washed with cold assay buffer (3×50 uL), incubated for 1 hour with 25 μL/well of a streptavidin-peroxidase solution (diluted in assay buffer to 80 ng/mL) at 4° C., followed by further washing steps with assay buffer (3×50 uL). Finally, 25 μL/well of ABTS substrate is added.

[2] = target: Galectin-1 (Homo sapiens, UniProt P09382); assay: Biological Assay
Description: as §1

Sequence of Galectin-3 (P17931 whole entry): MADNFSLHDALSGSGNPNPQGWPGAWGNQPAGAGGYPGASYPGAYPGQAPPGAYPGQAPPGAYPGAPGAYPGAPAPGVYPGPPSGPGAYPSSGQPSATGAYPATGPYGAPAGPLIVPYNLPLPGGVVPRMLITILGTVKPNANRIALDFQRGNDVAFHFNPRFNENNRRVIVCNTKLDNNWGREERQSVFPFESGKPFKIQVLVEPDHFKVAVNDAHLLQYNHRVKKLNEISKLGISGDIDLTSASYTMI
Sequence of Galectin-1 (P09382 whole entry): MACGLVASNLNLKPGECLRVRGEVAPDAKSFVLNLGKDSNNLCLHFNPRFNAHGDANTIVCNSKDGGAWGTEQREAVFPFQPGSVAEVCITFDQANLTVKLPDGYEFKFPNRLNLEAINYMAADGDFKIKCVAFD

| SMILES | IC50 [1] [nM] | IC50 [2] [nM] |
| --- | --- | --- |
| CO[C@@H]1[C@@H](n2cc(-c3cc(F)c(Br)c(F)c3)nn2)[C@@H](O)[C@@H](CO)O[C@H]1C(=O)N(c1cc(Br)cc(C#N)c1)[C@H]1CCC[C@@H]1O [US20230348442, Example 1.6.5] | 25.5 |  |
| CO[C@@H]1[C@@H](n2cc(-c3cc(F)cc(Br)c3)nn2)[C@@H](O)[C@@H](CO)O[C@H]1C(=O)N(c1cc(Br)cc(C#N)c1)[C@H]1CCC[C@@H]1O [US20230348442, Example 1.10.5] | 69.2 |  |
| O=C([C@@H]1O[C@H](CO)[C@H](O)[C@H](n2cc(-c3cc(F)c(F)c(F)c3)nn2)[C@H]1O)N(c1cc(Cl)cc(Cl)c1)[C@H]1CCC[C@@H]1O [US20230348442, Example 1H.1.2] | 29.4 | 2090 |
| N#Cc1cc(Cl)cc(N(C(=O)[C@@H]2O[C@H](CO)[C@H](O)[C@H](n3cc(-c4cc(F)c(Cl)c(F)c4)nn3)[C@H]2O)[C@H]2CCC[C@@H]2O)c1 [US20230348442, Example 1H.5.4] | 19.9 |  |
| CO[C@@H]1[C@@H](n2cc(-c3cc(F)c(F)c(F)c3)nn2)[C@@H](O)[C@@H](CO)O[C@H]1C(=O)N(c1cc(C)cc(Br)c1)[C@H]1CC[C@@H]1O [US20230348442, Example 2.1.12] | 111 |  |

Source: BindingDB's records for patent US20230348442 (Idorsia Pharmaceuticals, 2023)
